Assay results: patent US20170065564A1, “BIS-CYCLIC GUANIDINE COMPOUND COMPOSITIONS, METHODS OF USE AND TREATMENT THEREOF” (University of South Florida, priority 2014, published 2017)

How the values were obtained:
P. aeruginosa [1] = type: cell-based, Pseudomonas aeruginosa; conditions: 8 passages, concentration doubled each day
Procedure: ESKAPE pathogens were grown overnight in liquid media at 37° C. These cultures were then diluted 1:100 in fresh media, and seeded into a 96-well plate. Lead bis-cyclic guanidines or control agents were added to respective wells at half MIC concentrations. […] These were then grown overnight, and the procedure repeated for a total of eight days.

ESKAPE pathogens = assay: MIC micro broth dilution assay, statements and stacked scores over all ESKAPE pathogens; type: cell-based; conditions: for pathogens against which the compound showed activity at 4 ug/ml / pathogens against which the compound showed activity at 5 ug/ml / pathogens against which the compound showed activity at 10 ug/ml / pathogens against which the compound showed activity at 25 ug/ml: letters E,S,K,A,P,E = ESKAPE pathogens, — = none
Procedure: For this study we used a representative panel of multi-drug resistant clinical ESKAPE pathogen isolates (Supplemental Table S6).^42 43 3a, 44 45 Gram-positive organisms were grown in tryptic soy broth media (TSB), whilst Gram-negative organisms were grown in lysogeny Broth (LB), as described by us previously. ^43 MIC and MBC determination assays.
The minimum inhibitory concentration (MIC) for the combinatorial libraries, deconvolved 2157 library, and individual compounds were determined as follows. Broth cultures of ESKAPE strains were grown overnight before being diluted 1 in 1,000 in fresh media. Sterile 96-well plates were loaded with culture and compounds (in DMF) were added at decreasing concentrations to equal a total volume of 200 μl per well. Care was taken to not add more than 2.0% DMF to any well. Plates were then incubated at 37° C., and MICs determined after 24 hours by visual inspection for a lack of turbidity in wells. All assays were performed in triplicate with identical results obtained. For both the scaffold ranking and positional scanning samples, relative broad-spectrum activity was determined via stacked scores: […]

P. aeruginosa [2] = assay: MIC reanalysis in the presence of the efflux inhibitor reserpine; type: cell-based, Pseudomonas aeruginosa
Description: (§1) Given the minor variations observed in MIC for three of the Gram-negative organisms, and that these particular bacteria are renowned for efflux detoxification of antibacterial agents, we hypothesized that the differences observed likely relate to variation in efflux pump activity between strains. […] The effects observed appear to be universal, regardless of strain or compound tested. […] It should be noted that the data presented herein represents a worst-case scenario. […] Similar data was returned for all front runner agents, against all 10 isolates of the three Gram-negative organisms (data not shown). These findings support the hypothesis that inherent efflux mechanisms of certain Gram-negative organisms result in MIC variations for the lead bis-cyclic guanidines between clinical isolates.

K. pneumoniae = assay: as above; type: cell-based, Klebsiella pneumoniae; conditions: K. pneumoniae strain 1441; with 100 μM of reserpine
Description: as §1

E. cloacae = assay: as above; type: cell-based, Enterobacter cloacae; conditions: E. cloacae strain 1446; with 100 μM of reserpine
Description: as §1

Compound | increase in MIC after serial passage (P. aeruginosa [1]) [fold] | pathogens against which the compound showed activity at 4 ug/ml (ESKAPE pathogens) | pathogens against which the compound showed activity at 5 ug/ml (ESKAPE pathogens) | pathogens against which the compound showed activity at 10 ug/ml (ESKAPE pathogens) | pathogens against which the compound showed activity at 25 ug/ml (ESKAPE pathogens) | stacked score Total (ESKAPE pathogens; stacked score over all ESKAPE pathogens (details in Table S4b)) | Total stacked score (ESKAPE pathogens; sum over all six ESKAPE pathogens) | effect on growth, paired with reserpine (P. aeruginosa [2]; P. aeruginosa strain 1414, with reserpine) | effect on growth, in combination with reserpine (K. pneumoniae) | effect on growth, in combination with reserpine (E. cloacae) | effect on growth, combined with reserpine (P. aeruginosa [2]; P. aeruginosa isolate 1420, 2 μM compound plus 100 μM reserpine) | effect on growth, agent alone (P. aeruginosa [2]; P. aeruginosa isolate 1420, 100 μM of reserpine or 2 μM of compound 1 individually)
CCCCCCCN1C(=N)N(CCCC[C@H]2CNC(=N)N2CCC23CC4CC(CC(C4)C2)C3)C[C@@H]1CCCC [Compound 19] | 8 | ESAP | ESKAPE | ESKAPE | ESKAPE | 156 | 156 | complete inhibition of growth | – | – | – | –
CCCCCCCN1C(=N)N(CCCC[C@H]2CNC(=N)N2CCCCC2CCCCC2)C[C@@H]1CC1CCCCC1 [Compound 16] | 8 | EAP | ESKAPE | ESKAPE | ESKAPE | – | – | – | complete inhibition of growth | – | – | –
CCCC[C@H]1CN(CCCC[C@H]2CNC(=N)N2CCc2cccc(C(F)(F)F)c2)C(=N)N1CCCCC1CCCCC1 [Compound 2, (S)-4-butyl-3-(4-cyclohexylbutyl)-1-(4-((S)-2-imino-3-(3-(trifluoromethyl)phenethyl)imidazolidin-4-yl)butyl)imidazolidin-2-imine] | – | ESAP | ESKAPE | ESKAPE | ESKAPE | – | – | – | – | – | – | –
CCCCCCCN1C(=N)N(CCCC[C@H]2CNC(=N)N2CCc2cccc(C(F)(F)F)c2)C[C@@H]1CC1CCCCC1 [Compound 7] | – | ESAP | ESKAPE | ESKAPE | ESKAPE | – | – | – | – | complete inhibition of growth | – | –
CCCCCCCN1C(=N)N(CCCC[C@H]2CNC(=N)N2CCc2cccc(C(F)(F)F)c2)C[C@@H]1CCCC [Compound 1] | – | – | ESKAPE | ESKAPE | ESKAPE | – | – | – | – | – | strongly inhibited growth | no effect
